According to US20020052370A1, “Cyclopentyl-substituted glutaramide derivatives as inhibitors of neutral endopeptidase” (priority 2000, published 2002):

Legend:
[1] = test system: vaginal and clitoral blood flow; assay: Anaesthetised rabbit model of sexual arousal: pelvic nerve stimulated genital blood flow by laser Doppler; assay type: in vivo, Female New Zealand rabbits
Text: Animal Model of arousal response
We have developed an animal model that mimics the physiological arousal response observed during female sexual arousal and directly reflects the clinical data obtained in human volunteers. The model uses Laser Doppler technologies to record small changes in vaginal and clitoral blood flow induced by pelvic nerve stimulation or vasoactive neurotransmitters. During sexual arousal there is an increase in genital blood flow resulting from increased innervation from the pelvic nerve. This increase in genital blood flow leads to increased genital lubribriation and genital sensitivity which are associated with sexual arousal. The major cause of FSAD is decreased genital blood flow and this manifests itself as reduced vaginal, labial and clitoral engorgement. Treatment of women with FSAD is achievable by restoration of the normal sexual arousal response. This can be achieved by enhancing genital blood flow.
The title product from Example 29 was administered using this animal model according to the following protocol to show an enhancement in pelvic nerve stimulated increases in genital blood flow in the rabbit.
Two routes of administration were studied: a) intravenous administration and b) topical administration. Both studies used the anesthatised rabbit model according to the following protocol.
Female New Zealand rabbits (˜2.5 kg) were pre-medicated with a combination of Medetomidine (Domitor®) 0.5 ml/kg i.m., and Ketamine (Vetalar®) 0.25 ml/kg i.m. whilst maintaining oxygen intake via a face mask. The rabbits were tracheotomised using a Portex™ uncuffed endotracheal tube 3 ID, connected to ventilator and maintained a ventilation rate of 30-40 breaths per minute, with an approximate tidal volume of 18-20 ml, and a maximum airway pressure of 10 cm H2O. Anaesthesia was then switched to Isoflurane and ventilation continued with O2 at 2 l/min. The right marginal ear vein was cannulated using a 23 G or 24 G catheter, and Lactated Ringer solution perfused at 0.5 ml/min. The rabbit was maintained at 3% Isoflurane during invasive surgery, dropping to 2% for maintenance anaesthesia.
A ventral midline incision was made into the abdominal cavity. The incision was about 5 cm in length just above the pubis. The fat and muscle was bluntly dissected away to reveal the hypogastric nerve which runs down the body cavity. It was essential to keep close to the side curve of the pubis wall in order to avoid damaging the femoral vein and artery which lie above the pubis. The sciatic and pelvic nerves lie deeper and were located after further dissection on the dorsal side of the rabbit. Once the sciatic nerve is identified, the pelvic nerve was easily located. The term pelvic nerve is loosely applied; anatomy books on the subject fail to identify the nerves in sufficient detail. However, stimulation of the nerve causes an increase in vaginal and clitoral blood flow, and innervation of the pelvic region. The pelvic nerve was freed away from surrounding tissue and a Harvard bipolar stimulating electrode was placed around the nerve. The nerve was slightly lifted to give some tension, then the electrode was secured in position. Approximately 1 ml of light paraffin oil was placed around the nerve and electrode. […]
A frequency response curve was determined at the start of each experiment in order to determine the optimum frequency to use as a sub-maximal response, normally 4 Hz. […]

[2] = 1.0 mg/kg iv bolus infusion, submaximal stimulation (eg 4 Hz), anaesthetised rabbit, n=3

| Structure (SMILES) | increase in clitoral blood flow (peak, pelvic nerve stimulated) [1, 2] | increase in vaginal blood flow (peak, pelvic nerve stimulated) [1, 2] | pelvic nerve stimulated increases in genital blood flow ([1]; both intravenous and topical administration, clinically relevant doses, rabbit) | peak pelvic nerve stimulated increase in vaginal blood flow ([1]; intravaginal topical application (0.2 mg/ml printed), vs mean control flow increases, n=4, P<0.001) | basal (non-stimulated) vaginal blood flow ([1]; intravaginal topical application, compared to control flow, n=4) | melting point |
| --- | --- | --- | --- | --- | --- | --- |
| CCC[C@H](CC1(C(=O)Nc2nnc(CC)s2)CCCC1)C(=O)O [Example 29, (2R)-2-[(1-{[(5-Ethyl-1,3,4-thiadiazol-2-yl)amino]carbonyl}cyclopentyl)methyl]pentanoic acid] | 131% | 92% | significantly enhanced | significantly enhanced | no effect |  |
| O=C(O)C(CCc1ccccc1)CC1(C(=O)Nc2cccnc2)CCCC1 (stereo not drawn) [Example 41, 4-Phenyl-2-({1-[(3-pyridinylamino)carbonyl]cyclopentyl}methyl)butanoic acid] |  |  |  |  |  | 80 to 85 °C |
